The text below walks through data of patent US9763445B2, “Safened herbicidal compositions comprising a pyridine carboxylic acid herbicide” (Dow AgroSciences, LLC, priority 2014, dated 2017).

Like-named read-outs stand apart in the source and are kept apart here.

For one data set, the system named is spring barley (HORVS). Put plainly: Postemergence greenhouse trial, % visual injury on spring barley. The format is in vivo, Hordeum vulgare. The settings on record: HORVS. As for the experimental part: (§1) Seeds of the desired test plant species were planted in Sun Gro MetroMix® 306 planting mixture, which typically has a pH of 6.0 to 6.8 and an organic matter content of about 30 percent, in plastic pots with a surface area of 103.2 square centimeters (cm^2). When required to ensure good germination and healthy plants, a fungicide treatment and/or other chemical or physical treatment was applied. The plants were grown for 7-36 days (d) in a greenhouse with an approximate 14-hour (h) photoperiod which was maintained at about 23° C. during the day and 22° C. during the night. Nutrients and water were added on a regular basis and supplemental lighting was provided with overhead metal halide 1000-Watt lamps as necessary. The plants were employed for testing when they reached the second or third true leaf stage.
(§2) Weighed amounts of technical material were dissolved in a volume of 97:3 volume per volume (v/v) acetone/dimethyl sulfoxide (DMSO) to stock solutions. […] The concentrated stock solutions were diluted with an aqueous mixture of 1.5% v/v of Agri-dex crop oil concentrate to provide the appropriate application rates. Compound requirements are based upon a 12 milliliter (mL) application volume at a rate of 187 liters per hectare (L/ha). Stocks solutions of the safeners were prepared following the same procedure. Spray solutions of the safeners and experimental compound mixtures were prepared by adding the stock solutions to the appropriate amount of dilution solution to form a 12 mL spray solution in two-way combinations. Formulated compounds were applied to the plant material with an overhead Mandel track sprayer equipped with 8002E nozzles calibrated to deliver 187 L/ha over an application area of 0.503 square meters (m^2) at a spray height of 18 inches (43 centimeters (cm)) above average plant canopy. Control plants were sprayed in the same manner with the solvent blank. All herbicide application (component a) rates are in g ae/ha and all safener (component b) rates are in g ai/ha.
(§3) The treated plants and control plants were placed in a greenhouse as described above and watered by sub-irrigation to prevent wash-off of the test compounds. After 20-22 d, the condition of the test plants as compared with that of the control plants was determined visually and scored on a scale of 0 to 100 percent where 0 corresponds to no injury and 100 corresponds to complete kill. The condition of the test plants was compared with that of the control plants as determined visually and scored on a scale of 0 to 100 percent, where 0 corresponds to no injury and 100 corresponds to complete kill. Colby's equation was used to determine the herbicidal effects expected from the mixtures.
The safener cloquintocet-mexyl was combined with compound 1, compound 2, compound 3, compound 7, compound 8, compound 9, compound 10, compound 11, compound 12, compound 13, compound 14, compound 15, compound 16, compound 17, compound 18, compound 19, and compound 20, and applied to spring wheat (TRZAS), winter wheat (TRZAW), and spring barley (HORVS) and the phytotoxicity of the herbicidal compositions was measured. […]

The next data set has as its system lambsquarters (CHEAL). Nature of the data set: Postemergence greenhouse trial, % visual injury on lambsquarters. The format is in vivo, Chenopodium album. Conditions: Chenopodium album, post-emergence, CHEAL, read-out: % visual injury, Ob; for pest or weed control at 4.38 g/ha: compound 4.380 g/ha. In outline:
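Plants at second or third true leaf stage, greenhouse-grown (14 h photoperiod, ~23/22° C.), sprayed postemergence with compounds alone or with safener cloquintocet-mexyl in 1.5% v/v Agri-dex crop oil at 187 L/ha. Visual injury scored 0–100% versus solvent-blank controls after 20-22 d; expected mixture effects by Colby's equation.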

Another data set relates to Russian thistle (SASKR). Put plainly: Postemergence greenhouse trial, % visual injury on Russian thistle. The format is in vivo, Salsola kali. Conditions: SASKR.
A further data set relates to pigweed (AMARE). Put plainly: Postemergence greenhouse trial, % visual injury on pigweed. The settings on record: Amaranthus retroflexus, post-emergence, AMARE, read-out: % visual injury, Ob. The format is in vivo, Amaranthus retroflexus. In outline: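 Postemergence greenhouse spray (187 L/ha, 1.5% v/v Agri-dex in water, acetone/DMSO stocks) on plants at second–third true leaf stage, ~23/22 °C, 14 h photoperiod; herbicides in g ae/ha, safener cloquintocet-mexyl in g ai/ha. Visual injury 0–100% versus solvent-blank controls after 20–22 d; Colby's equation gave expected mixture effects.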

For data set [1], the system named is bird's-eye speedwell (VERPE). Nature of the data set: Postemergence greenhouse trial, % visual injury on bird's-eye speedwell. Type of data set: in vivo, Veronica persica. Conditions: VERPE, CQC-m 0. As for the experimental part: as §1, §2
as §3, with “mixtures. […]” for “mixtures.”

For `CCCCOC(=O)c1nc(-c2ccc3cc[nH]c3c2F)c(F)c(N)c1Cl` [compound 9], the “% visual injury, Ob” value came out at 10% in the data set on spring barley (HORVS) (compound 4.380 g/ha, CQC-m 0); 20% in the data set on spring barley (HORVS) (compound 8.75 g/ha, CQC-m 0); 30% in the data set on spring barley (HORVS) (compound 17.5 g/ha, CQC-m 0); 40% with spring barley (HORVS) (compound 35 g/ha, CQC-m 0); 50% with spring barley (HORVS) (compound 70 g/ha, CQC-m 0); 65% with Russian thistle (SASKR) (compound 4.380 g/ha, CQC-m 0). Moreover, the “% visual injury, Ob” value is 70% in the data set with Russian thistle (SASKR) (compound 8.75 g/ha, CQC-m 0); 80% with Russian thistle (SASKR) (compound 17.5 g/ha, CQC-m 0); 85% in the data set on Russian thistle (SASKR) (compound 35 g/ha, CQC-m 0); 87% in the data set on Russian thistle (SASKR) (compound 70 g/ha, CQC-m 0). Also, the pest or weed control at 4.38 g/ha with lambsquarters (CHEAL) (CQC-m 0) amounted to 85%; with pigweed (AMARE) (compound 4.380 g/ha, CQC-m 0) it was 10%. The pest or weed control at 8.75 g/ha in the data set with lambsquarters (CHEAL) (compound 8.75 g/ha, CQC-m 0) was 80%; in the data set on pigweed (AMARE) (compound 8.75 g/ha, CQC-m 0) it was 20%. The pest or weed control at 17.5 g/ha in the data set on lambsquarters (CHEAL) (compound 17.5 g/ha, CQC-m 0) is 95%; in the data set with pigweed (AMARE) (compound 17.5 g/ha, CQC-m 0) it was 50%. For the same compound, in the data set on lambsquarters (CHEAL) (compound 35 g/ha, CQC-m 0), the pest or weed control at 35 g/ha was determined as 100%. The pest or weed control at 70 g/ha in the data set with lambsquarters (CHEAL) (compound 70 g/ha, CQC-m 0) was determined as 100%; in the data set with pigweed (AMARE) (compound 70 g/ha, CQC-m 0), 100%.

As to `CO/C=N/c1c(F)c(-c2ccc3cc[nH]c3c2F)nc(C(=O)OC)c1Cl` [compound 10], the “% visual injury, Ob” value is listed as 0% with spring barley (HORVS) (compound 4.380 g/ha, CQC-m 0); 10% in the data set with spring barley (HORVS) (compound 8.75 g/ha, CQC-m 0); 20% with spring barley (HORVS) (compound 17.5 g/ha, CQC-m 0); 20% with spring barley (HORVS) (compound 35 g/ha, CQC-m 0); 40% in the data set on spring barley (HORVS) (compound 70 g/ha, CQC-m 0); 70% in data set [1] (compound 4.380 g/ha). For the same compound, the “% visual injury, Ob” value in data set [1] (compound 8.75 g/ha) worked out at 85%; in data set [1] (compound 17.5 g/ha) it was 90%; in data set [1] (compound 35 g/ha), 100%; in data set [1] (compound 70 g/ha), 100%; with Russian thistle (SASKR) (compound 4.380 g/ha, CQC-m 0) it was 70%; in the data set on Russian thistle (SASKR) (compound 8.75 g/ha, CQC-m 0), 80%. Moreover, the “% visual injury, Ob” value in the data set with Russian thistle (SASKR) (compound 17.5 g/ha, CQC-m 0) is reported as 87%; with Russian thistle (SASKR) (compound 35 g/ha, CQC-m 0), 90%; in the data set with Russian thistle (SASKR) (compound 70 g/ha, CQC-m 0), 93%.

On to `COC(=O)c1nc(-c2ccc3cc[nH]c3c2F)c(F)c(N)c1OC` [compound 12], for which the “% visual injury, Ob” value with spring barley (HORVS) (compound 4.380 g/ha, CQC-m 0) is recorded as 18%; in the data set with spring barley (HORVS) (compound 8.75 g/ha, CQC-m 0) it was 23%; in the data set with spring barley (HORVS) (compound 17.5 g/ha, CQC-m 0), 37%; with spring barley (HORVS) (compound 35 g/ha, CQC-m 0), 47%; in the data set on spring barley (HORVS) (compound 70 g/ha, CQC-m 0), 60%; in the data set on Russian thistle (SASKR) (compound 4.380 g/ha, CQC-m 0), 10%. For the same compound, the “% visual injury, Ob” value worked out at 33% in the data set on Russian thistle (SASKR) (compound 8.75 g/ha, CQC-m 0); 52% in the data set with Russian thistle (SASKR) (compound 17.5 g/ha, CQC-m 0); 72% with Russian thistle (SASKR) (compound 35 g/ha, CQC-m 0); 88% with Russian thistle (SASKR) (compound 70 g/ha, CQC-m 0). In the data set on lambsquarters (CHEAL) (CQC-m 0), the pest or weed control at 4.38 g/ha is 40%. The pest or weed control at 8.75 g/ha in the data set with lambsquarters (CHEAL) (compound 8.75 g/ha, CQC-m 0) was determined as 50%. The pest or weed control at 17.5 g/ha in the data set with lambsquarters (CHEAL) (compound 17.5 g/ha, CQC-m 0) came out at 72%. In the data set with lambsquarters (CHEAL) (compound 35 g/ha, CQC-m 0), the pest or weed control at 35 g/ha stood at 88%. Further, the pest or weed control at 70 g/ha in the data set with lambsquarters (CHEAL) (compound 70 g/ha, CQC-m 0) was 91%.

As to `Nc1c(F)c(-c2ccc3scnc3c2)nc(C(=O)O)c1Cl` [compound 17], the “% visual injury, Ob” value in the data set with spring barley (HORVS) (4.375 g/ha, applied alone) is 0%; in the data set on spring barley (HORVS) (8.75 g/ha, applied alone) it was 15%; in the data set on spring barley (HORVS) (17.5 g/ha, applied alone), 30%; with spring barley (HORVS) (35 g/ha, applied alone), 40%; in the data set with spring barley (HORVS) (70 g/ha, applied alone), 45%. The pest or weed control at 4.375 g/ha in the data set with lambsquarters (CHEAL) (4.375 g/ha, applied alone) worked out at 40%. Further, the pest or weed control at 8.75 g/ha in the data set with lambsquarters (CHEAL) (8.75 g/ha, applied alone) is 60%. Further, the pest or weed control at 17.5 g/ha was found to be 70% with lambsquarters (CHEAL) (17.5 g/ha, applied alone) and 100% in the data set on pigweed (AMARE) (17.5 g/ha, applied alone). In addition, the pest or weed control at 35 g/ha in the data set on lambsquarters (CHEAL) (35 g/ha, applied alone) came out at 80%; with pigweed (AMARE) (35 g/ha, applied alone) it was 100%. In addition, the pest or weed control at 70 g/ha with lambsquarters (CHEAL) (70 g/ha, applied alone) turned out to be 85%.

With `Nc1c(F)c(-c2ccc3ccoc3c2)nc(C(=O)O)c1Cl` [compound 20], the “% visual injury, Ob” value in the data set on spring barley (HORVS) (4.375 g/ha, applied alone) amounted to 0%; with spring barley (HORVS) (8.75 g/ha, applied alone), 10%; in the data set with spring barley (HORVS) (17.5 g/ha, applied alone) it was 20%; in the data set with spring barley (HORVS) (35 g/ha, applied alone) it was 30%; with spring barley (HORVS) (70 g/ha, applied alone), 40%; in the data set on Russian thistle (SASKR) (4.375 g/ha, applied alone), 20%. Besides, the “% visual injury, Ob” value with Russian thistle (SASKR) (8.75 g/ha, applied alone) stood at 40%; with Russian thistle (SASKR) (17.5 g/ha, applied alone), 60%; with Russian thistle (SASKR) (35 g/ha, applied alone) it was 80%; with Russian thistle (SASKR) (70 g/ha, applied alone), 80%.
